In PubChem BioAssay (NCI):
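Cells were grown in 96-well plates and exposed to each compound for 48 hours at five concentrations; endpoints were interpolated linearly between bracketing concentrations, or set to the highest concentration if not reached. Definition used: TGI = concentration required for complete inhibition of growth.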

Assays:
Assay in all cases: inhibition of tumour cell growth, NCI panel, 48 h
A549 NSCLC = test system: A549 NSCLC
MOLT-4 leukemia = test system: MOLT-4 leukemia
OVCAR-4 ovarian = test system: OVCAR-4 ovarian
CCRF-CEM leukemia = test system: CCRF-CEM leukemia
SW-620 colon = test system: SW-620 colon
HL-60(TB) leukemia = test system: HL-60(TB) leukemia
OVCAR-8 ovarian = test system: OVCAR-8 ovarian
RPMI-8226 leukemia = test system: RPMI-8226 leukemia
SK-MEL-28 melanoma = test system: SK-MEL-28 melanoma
SK-MEL-2 melanoma = test system: SK-MEL-2 melanoma
M19-MEL melanoma = test system: M19-MEL melanoma
OVCAR-5 ovarian = test system: OVCAR-5 ovarian
NCI-H226 lung = test system: NCI-H226 lung
SR leukemia = test system: SR leukemia
OVCAR-3 ovarian = test system: OVCAR-3 ovarian
HT29 colon = test system: HT29 colon
SN12C renal = test system: SN12C renal
SNB-19 CNS = test system: SNB-19 CNS
COLO 205 colon = test system: COLO 205 colon
UACC-257 melanoma = test system: UACC-257 melanoma
MALME-3M melanoma = test system: MALME-3M melanoma
IGROV1 ovarian = test system: IGROV1 ovarian
DLD-1 colon = test system: DLD-1 colon
U251 CNS = test system: U251 CNS
NCI-H522 lung = test system: NCI-H522 lung
M14 melanoma = test system: M14 melanoma
LOX IMVI melanoma = test system: LOX IMVI melanoma
SNB-78 CNS = test system: SNB-78 CNS
A498 renal = test system: A498 renal
DMS 273 small cell lung = test system: DMS 273 small cell lung
HOP-92 NSCLC = test system: HOP-92 NSCLC
K-562 leukemia = test system: K-562 leukemia
CAKI-1 renal = test system: CAKI-1 renal
NCI-H460 lung = test system: NCI-H460 lung
HCT-116 colon = test system: HCT-116 colon
SF-539 CNS = test system: SF-539 CNS
HOP-62 NSCLC = test system: HOP-62 NSCLC
LXFL 529 NSCLC = test system: LXFL 529 NSCLC
ACHN renal = test system: ACHN renal
HCC-2998 colon = test system: HCC-2998 colon
UACC-62 melanoma = test system: UACC-62 melanoma
RXF 393 renal = test system: RXF 393 renal
UO-31 renal = test system: UO-31 renal
SK-MEL-5 melanoma = test system: SK-MEL-5 melanoma
786-0 renal = test system: 786-0 renal
EKVX NSCLC = test system: EKVX NSCLC
SK-OV-3 ovarian = test system: SK-OV-3 ovarian
NCI-H23 lung = test system: NCI-H23 lung
SF-295 CNS = test system: SF-295 CNS
KM12 colon = test system: KM12 colon
SF-268 CNS = test system: SF-268 CNS
SNB-75 CNS = test system: SNB-75 CNS
TK-10 renal = test system: TK-10 renal
DMS 114 small cell lung = test system: DMS 114 small cell lung
KM20L2 colon = test system: KM20L2 colon
HCT-15 colon = test system: HCT-15 colon

CC(=O)NC1=C(C)C(=O)c2c(nc3n2CCC3OC(=O)CCl)C1=O (centres undefined) gave a TGI (A549 NSCLC) of 26 µM, a TGI (MOLT-4 leukemia) of 4.48 µM and a TGI (OVCAR-4 ovarian) of 4.19 µM. It also gave a TGI (CCRF-CEM leukemia) of 4.52 µM, a TGI (SW-620 colon) of 22.6 µM and a TGI (HL-60(TB) leukemia) of 8.58 µM. For the same compound, the TGI (OVCAR-8 ovarian) was 16.6 µM, the TGI (RPMI-8226 leukemia) was greater than 100 µM and the TGI (SK-MEL-28 melanoma) was 31.4 µM. The TGI (SK-MEL-2 melanoma) was 10.2 µM, the TGI (M19-MEL melanoma) was 26.3 µM and the TGI (OVCAR-5 ovarian) was 25.5 µM. For the same compound, the TGI (NCI-H226 lung) was 7.01 µM, the TGI (SR leukemia) was greater than 100 µM and the TGI (OVCAR-3 ovarian) was 3.68 µM. For the same compound, the TGI (HT29 colon) was 30.3 µM, the TGI (SN12C renal) was 24.1 µM and the TGI (SNB-19 CNS) was 32.1 µM. For the same compound, the TGI (COLO 205 colon) was 34.7 µM, the TGI (UACC-257 melanoma) was 25.5 µM and the TGI (MALME-3M melanoma) was 16.6 µM. The TGI (IGROV1 ovarian) was 25.2 µM, the TGI (DLD-1 colon) was 29.7 µM and the TGI (U251 CNS) was 11.8 µM. It also gave a TGI (NCI-H522 lung) of 11.9 µM, a TGI (M14 melanoma) of 32.2 µM and a TGI (LOX IMVI melanoma) of 16.8 µM. For the same compound, the TGI (SNB-78 CNS) was 6.5 µM, the TGI (A498 renal) was 27.4 µM and the TGI (DMS 273 small cell lung) was 33.6 µM. The TGI (HOP-92 NSCLC) was 5.15 µM, the TGI (K-562 leukemia) was 5.73 µM and the TGI (CAKI-1 renal) was 35.2 µM. For the same compound, the TGI (NCI-H460 lung) was 56.2 µM, the TGI (HCT-116 colon) was 5.57 µM and the TGI (SF-539 CNS) was 6.47 µM. It also gave a TGI (HOP-62 NSCLC) of 31.6 µM, a TGI (LXFL 529 NSCLC) of 5.12 µM and a TGI (ACHN renal) of 42.5 µM. The TGI (HCC-2998 colon) was 25.7 µM, the TGI (UACC-62 melanoma) was 6.33 µM and the TGI (RXF 393 renal) was 18.1 µM. The TGI (UO-31 renal) was 31.9 µM, the TGI (SK-MEL-5 melanoma) was 25.4 µM and the TGI (786-0 renal) was 21.6 µM. It also gave a TGI (EKVX NSCLC) of 20.6 µM, a TGI (SK-OV-3 ovarian) of 37.9 µM and a TGI (NCI-H23 lung) of 26.1 µM. For the same compound, the TGI (SF-295 CNS) was 29.9 µM, the TGI (KM12 colon) was 29.5 µM and the TGI (SF-268 CNS) was 21.9 µM. The TGI (SNB-75 CNS) was 30.1 µM and the TGI (TK-10 renal) was 43.1 µM.
CC(=O)NC1=C(C)C(=O)c2c(nc3n2CCC3OC(=O)c2ccccc2)C1=O (centres undefined) was tested, and the TGI (A549 NSCLC) was 3.1 µM, the TGI (MOLT-4 leukemia) was 5.57 µM and the TGI (OVCAR-4 ovarian) was 3.2 µM. For the same compound, the TGI (CCRF-CEM leukemia) was 4.44 µM, the TGI (SW-620 colon) was 4.55 µM and the TGI (HL-60(TB) leukemia) was 5.13 µM. For the same compound, the TGI (OVCAR-8 ovarian) was 2.95 µM, the TGI (RPMI-8226 leukemia) was 5.62 µM and the TGI (SK-MEL-28 melanoma) was 3.67 µM. It also gave a TGI (SK-MEL-2 melanoma) of 3.19 µM, a TGI (M19-MEL melanoma) of 3.57 µM and a TGI (OVCAR-5 ovarian) of 3.54 µM. For the same compound, the TGI (NCI-H226 lung) was 4.69 µM, the TGI (SR leukemia) was 6 µM and the TGI (OVCAR-3 ovarian) was 0.528 µM. For the same compound, the TGI (HT29 colon) was 3.48 µM, the TGI (SN12C renal) was 3.41 µM and the TGI (SNB-19 CNS) was 7.65 µM. For the same compound, the TGI (COLO 205 colon) was 12.5 µM, the TGI (UACC-257 melanoma) was 2.93 µM and the TGI (MALME-3M melanoma) was 3.38 µM. It also gave a TGI (IGROV1 ovarian) of 3.98 µM, a TGI (DLD-1 colon) of 4.46 µM and a TGI (U251 CNS) of 3.86 µM. It also gave a TGI (NCI-H522 lung) of 4.06 µM, a TGI (M14 melanoma) of 3.47 µM and a TGI (LOX IMVI melanoma) of 2.96 µM. For the same compound, the TGI (SNB-78 CNS) was 5.46 µM, the TGI (A498 renal) was 25.3 µM and the TGI (DMS 273 small cell lung) was 5.28 µM. It also gave a TGI (HOP-92 NSCLC) of 4.7 µM, a TGI (K-562 leukemia) of 6.17 µM and a TGI (CAKI-1 renal) of 4.78 µM. It also gave a TGI (NCI-H460 lung) of 5.13 µM, a TGI (HCT-116 colon) of 4.1 µM and a TGI (SF-539 CNS) of 3.4 µM. The TGI (HOP-62 NSCLC) was 5.56 µM, the TGI (LXFL 529 NSCLC) was 2.9 µM and the TGI (ACHN renal) was 8.72 µM. It also gave a TGI (HCC-2998 colon) of 12.1 µM, a TGI (UACC-62 melanoma) of 3.44 µM and a TGI (RXF 393 renal) of 11.6 µM. The TGI (UO-31 renal) was 6.3 µM, the TGI (DMS 114 small cell lung) was 2.54 µM and the TGI (SK-MEL-5 melanoma) was 3.12 µM. It also gave a TGI (786-0 renal) of 14.9 µM, a TGI (EKVX NSCLC) of 3.01 µM and a TGI (SK-OV-3 ovarian) of 8.51 µM. The TGI (NCI-H23 lung) was 3.55 µM, the TGI (SF-295 CNS) was 3.06 µM and the TGI (KM12 colon) was 10.3 µM. It also gave a TGI (SF-268 CNS) of 4.52 µM, a TGI (SNB-75 CNS) of 6.36 µM and a TGI (TK-10 renal) of 24.1 µM.
With CSc1nc(=Nc2ccccc2)sn1-c1ccccc1 the TGI (A549 NSCLC) was 44 µM, the TGI (KM20L2 colon) was 28.4 µM and the TGI (MOLT-4 leukemia) was 96 µM. The TGI (OVCAR-4 ovarian) was 23.6 µM, the TGI (CCRF-CEM leukemia) was 40 µM and the TGI (SW-620 colon) was 26.1 µM. The TGI (HL-60(TB) leukemia) was 22.6 µM, the TGI (OVCAR-8 ovarian) was 46.3 µM and the TGI (RPMI-8226 leukemia) was 40.5 µM. For the same compound, the TGI (SK-MEL-28 melanoma) was 30.2 µM, the TGI (SK-MEL-2 melanoma) was 76.9 µM and the TGI (M19-MEL melanoma) was 23 µM. For the same compound, the TGI (OVCAR-5 ovarian) was 48 µM, the TGI (NCI-H226 lung) was 36.2 µM and the TGI (SR leukemia) was 81.1 µM. For the same compound, the TGI (OVCAR-3 ovarian) was 38.5 µM, the TGI (HT29 colon) was 11.8 µM and the TGI (HCT-15 colon) was 30.4 µM. The TGI (SN12C renal) was 39 µM, the TGI (SNB-19 CNS) was 56.7 µM and the TGI (UACC-257 melanoma) was 43.9 µM. It also gave a TGI (MALME-3M melanoma) of 99.1 µM, a TGI (IGROV1 ovarian) of 40 µM and a TGI (U251 CNS) of 33.4 µM. The TGI (NCI-H522 lung) was 13.2 µM, the TGI (M14 melanoma) was 22.5 µM and the TGI (LOX IMVI melanoma) was 32 µM. For the same compound, the TGI (SNB-78 CNS) was 47 µM, the TGI (A498 renal) was 38.7 µM and the TGI (DMS 273 small cell lung) was 22.8 µM. It also gave a TGI (K-562 leukemia) of 30.1 µM, a TGI (CAKI-1 renal) of 35.1 µM and a TGI (NCI-H460 lung) of 16.9 µM. The TGI (HCT-116 colon) was 32.5 µM, the TGI (SF-539 CNS) was 36.9 µM and the TGI (HOP-62 NSCLC) was 31.3 µM. It also gave a TGI (ACHN renal) of 56 µM, a TGI (HCC-2998 colon) of 38.1 µM and a TGI (UACC-62 melanoma) of 18 µM. The TGI (RXF 393 renal) was 31.3 µM, the TGI (UO-31 renal) was 39.8 µM and the TGI (DMS 114 small cell lung) was 16.1 µM. For the same compound, the TGI (SK-MEL-5 melanoma) was 23.2 µM, the TGI (786-0 renal) was 34.4 µM and the TGI (EKVX NSCLC) was greater than 100 µM. For the same compound, the TGI (SK-OV-3 ovarian) was 62.2 µM, the TGI (NCI-H23 lung) was 36 µM and the TGI (SF-295 CNS) was 49.2 µM. The TGI (KM12 colon) was 44.2 µM, the TGI (SF-268 CNS) was 54 µM and the TGI (SNB-75 CNS) was 55.8 µM. The TGI (TK-10 renal) was 60.5 µM.
